Source: the supplement of paper PMC10331698
± gives the standard deviation of the averaged measurements.

What was measured:
Test in all cases: level (log10 ratio to DMSO vehicle control); higher = higher biomarker level / cell amount than vehicle control
[1] = compound: O=S(=O)(O)C(F)(F)C(F)(F)C(F)(F)C(F)(F)C(F)(F)C(F)(F)C(F)(F)F [Perfluoroheptanesulfonic acid] (in DMSO)
Procedure: (§1)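 BioMAP Diversity Plus panel of 12 human primary cell co-culture systems (3C, 4H, LPS, SAg, BT, BF4T, BE3C, CASM3C, HDF3CGF, KF3CT, MyoF, Mphg). Compounds were added 1 h before stimulation and left for 24 h (MyoF 48 h; BT 72 h for soluble read-outs or 6 d for IgG). Biomarkers were read by ELISA, cytotoxicity by SRB, PBMC viability and proliferation by Alamar Blue. Each well value was divided by the mean of 8 DMSO control wells on the same plate and log10 transformed; duplicate blinded samples were tested at 4 concentrations.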

[2] = compound: C=C(C)C(=O)OCCC(F)(F)C(F)(F)C(F)(F)C(F)(F)C(F)(F)C(F)(F)C(F)(F)C(F)(F)F [8:2 Fluorotelomer methacrylate] (in DMSO)
Procedure: as §1

[3] = compound: OCC(F)(F)OC(F)(F)C(F)(F)OC(F)(F)C(F)(F)OC(F)(F)CO [1H,1H,11H,11H-Perfluorotetraethylene glycol] (in DMSO)
Procedure: as §1

[4] = compound: OCC(F)(F)C(F)(F)C(F)(F)C(F)F [1H,1H,5H-Perfluoropentanol] (in DMSO)
Procedure: as §1

[5] = compound: OCC(F)(F)C(F)(F)C(F)(F)C(F)(F)C(F)(F)C(F)(F)CO [1H,1H,8H,8H-Perfluorooctane-1,8-diol] (in DMSO)
Procedure: as §1

Octafluoroadipic acid = compound: O=C(O)C(F)(F)C(F)(F)C(F)(F)C(F)(F)C(=O)O [Octafluoroadipic acid] (in DMSO)
Procedure: as §1

Perfluorononanoic acid = compound: O=C(O)C(F)(F)C(F)(F)C(F)(F)C(F)(F)C(F)(F)C(F)(F)C(F)(F)C(F)(F)F [Perfluorononanoic acid] (in DMSO)
Procedure: as §1

Test System: MyoF:CD106/VCAM-1
- level (log10) ([1]; 1500 nM): -0.01 ± 0.0057
- level (log10) ([1]; 4400 nM): -0.0015 ± 0.005
- level (log10) ([1]; 13000 nM): -0.0055 ± 0.015
- level (log10) ([1]; 40000 nM): 0.0145 ± 0.0021
- level (log10) ([2]; 6700 nM): -0.0125 ± 0.012
- level (log10) ([2]; 20000 nM): 0.002 ± 0.011
- level (log10) ([3]; 6700 nM): 0.011 ± 0.0057
- level (log10) ([3]; 20000 nM): -0.012 ± 0.011
- level (log10) ([3]; 60000 nM): -0.0985 ± 0.05
- level (log10) ([4]; 6700 nM): -0.02 ± 0.0099
- level (log10) ([4]; 20000 nM): -0.0005 ± 0.035
- level (log10) ([4]; 60000 nM): 0.0165 ± 0.015
- level (log10) ([5]; 6700 nM): -0.0045 ± 0.0035
- level (log10) ([5]; 20000 nM): 0.0105 ± 0.0021
- level (log10) ([5]; 60000 nM): 0.0295 ± 0.011
- level (log10) (Octafluoroadipic acid; 6700 nM): -0.0235 ± 0.005
- level (log10) (Octafluoroadipic acid; 20000 nM): -0.0255 ± 0.022
- level (log10) (Octafluoroadipic acid; 60000 nM): -0.0085 ± 0.016
- level (log10) (Perfluorononanoic acid; 6700 nM): -0.0475 ± 0.025
- level (log10) (Perfluorononanoic acid; 20000 nM): -0.024 ± 0.016

Test System: MyoF:CXCL8/IL-8
- level (log10) ([1]; 1500 nM): 0.0195 ± 0.011
- level (log10) ([1]; 4400 nM): 0.022 ± 0.011
- level (log10) ([1]; 13000 nM): 0.026
- level (log10) ([1]; 40000 nM): 0.032 ± 0.023
- level (log10) ([2]; 6700 nM): 0.0095 ± 0.025
- level (log10) ([2]; 20000 nM): 0.004 ± 0.0085
- level (log10) ([3]; 6700 nM): -0.0185 ± 0.011
- level (log10) ([3]; 20000 nM): -0.0215 ± 0.00071
- level (log10) ([3]; 60000 nM): -0.013 ± 0.018
- level (log10) ([4]; 6700 nM): -0.018 ± 0.076
- level (log10) ([4]; 20000 nM): 0.0485 ± 0.064
- level (log10) ([4]; 60000 nM): 0.07 ± 0.13
- level (log10) ([5]; 6700 nM): 0 ± 0.0085
- level (log10) ([5]; 20000 nM): 0.004 ± 0.025
- level (log10) ([5]; 60000 nM): 0 ± 0.034
- level (log10) (Octafluoroadipic acid; 6700 nM): -0.0025 ± 0.00071
- level (log10) (Octafluoroadipic acid; 20000 nM): 0.002 ± 0.041
- level (log10) (Octafluoroadipic acid; 60000 nM): 0.0235 ± 0.046
- level (log10) (Perfluorononanoic acid; 6700 nM): -0.03 ± 0.079
- level (log10) (Perfluorononanoic acid; 20000 nM): 0.0445 ± 0.044

Test System: MyoF:Collagen I
- level (log10) ([1]; 1500 nM): -0.0035 ± 0.0021
- level (log10) ([1]; 4400 nM): 0.0135 ± 0.005
- level (log10) ([1]; 13000 nM): -0.009 ± 0.0085
- level (log10) ([1]; 40000 nM): 0.0105 ± 0.011
- level (log10) ([2]; 6700 nM): -0.0335 ± 0.015
- level (log10) ([2]; 20000 nM): -0.0125 ± 0.0035
- level (log10) ([3]; 6700 nM): -0.0005 ± 0.026
- level (log10) ([3]; 20000 nM): 0.001 ± 0.03
- level (log10) ([3]; 60000 nM): -0.0495 ± 0.016
- level (log10) ([4]; 6700 nM): -0.003 ± 0.0057
- level (log10) ([4]; 20000 nM): 0.021 ± 0.041
- level (log10) ([4]; 60000 nM): 0.0305 ± 0.052
- level (log10) ([5]; 6700 nM): -0.0045 ± 0.025
- level (log10) ([5]; 20000 nM): -0.0165 ± 0.013
- level (log10) ([5]; 60000 nM): -0.0145 ± 0.0035
- level (log10) (Octafluoroadipic acid; 6700 nM): -0.0165 ± 0.018
- level (log10) (Octafluoroadipic acid; 20000 nM): -0.021 ± 0.021
- level (log10) (Octafluoroadipic acid; 60000 nM): -0.005 ± 0.0042
- level (log10) (Perfluorononanoic acid; 6700 nM): -0.017 ± 0.059
- level (log10) (Perfluorononanoic acid; 20000 nM): -0.101 ± 0.027
